Consider 22 molecules from US20060009493A1, “Indolinone hydrazides as c-Met inhibitors” (Sugen, Inc., priority 2003, published 2006).

The term IC50 denotes the midpoint of a concentration-inhibition curve.

Counter-ions that a name gives are not always drawn.

The target of the experiment is T1, GST fusion protein containing the Met kinase domain (Homo sapiens, UniProt P08581).
T1 construct: Purified GST fusion protein containing the Met kinase domain, Sugen, Inc
T1 sequence (P08581 1078-1345 limits assumed): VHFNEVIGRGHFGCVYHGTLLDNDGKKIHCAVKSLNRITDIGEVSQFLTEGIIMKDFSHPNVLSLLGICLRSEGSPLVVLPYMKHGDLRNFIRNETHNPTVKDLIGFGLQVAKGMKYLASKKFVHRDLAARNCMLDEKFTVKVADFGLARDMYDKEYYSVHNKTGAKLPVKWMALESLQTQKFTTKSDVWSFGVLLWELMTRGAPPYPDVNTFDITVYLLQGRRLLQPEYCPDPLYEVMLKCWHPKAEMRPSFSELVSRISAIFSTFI
Put plainly: MET Transphosphorylation Assay (ELISA, poly(Glu,Tyr) 4:1 substrate). The conditions noted are these: met transphosphorylation of poly(glutamic acid:tyrosine 4:1) substrate; two values in a cell separated by '/'. The class given is biochemical. The method, then: MET Transphosphorylation Assay
This assay is used to measure phosphotyrosine levels on a poly(glutamic acid:tyrosine (4:1)) substrate as a means for identifying agonists/antagonists of met transphosphorylation of the substrate.
• 1. […] PBS, Gibco Catalog # 450-1300EB • 4. 50 mM HEPES • 5. […] Purified GST fusion protein containing the Met kinase domain, Sugen, Inc. • 7. TBST Buffer. • 8. 10% aqueous (MilliQue H2O) DMSO. • 9. […] 2× Kinase Dilution Buffer: for 100 ml, mix 10 mL 1M HEPES at pH 7.5 with 0.4 mL 5% BSA/PBS, 0.2 mL 0.1 M sodium orthovanadate and 1 mL 5M sodium chloride in 88.4 mL dH2O. • 11. 4×ATP Reaction Mixture: for 10 mL, mix 0.4 mL 1 M manganese chloride and 0.02 mL 0.1 M ATP in […] dH2O. • 12. 4× Negative Controls Mixture: for 10 mL, mix 0.4 mL 1 M manganese chloride in 9.6 mL dH2O.
13. […] 500 mM EDTA. • 15. Antibody Dilution Buffer: for 100 mL, mix 10 mL 5% BSA/PBS, 0.5 mL 5% Carnation Instant Milk® in PBS and 0.1 mL 0.1 M sodium orthovanadate in 88.4 mL TBST. • 16. Rabbit polyclonal antophosphotyrosine antibody, Sugen, Inc. • 17. Goat anti-rabbit horseradish peroxidase conjugated antibody, Biosource, Inc. • 18. ABTS Solution: for 1 L, mix 19.21 g citric acid, 35.49 g Na2HPO4 and 500 mg ABTS with sufficient dH2O to make 1 L. • 19. ABTS/H2O2: mix 15 mL ABST solution with 2 μL H2O2 five minutes before use. • 20. 0.2 M HCl Procedure: • 1. Coat ELISA plates with 2 μg Poly(Glu-Tyr) in 100 μL PBS, store overnight at 4° C. • 2. Block plate with 150 μL of 5% BSA/PBS for 60 min. • 3. Wash plate twice with PBS, once with 50 mM Hepes buffer pH 7.4. • 4. Add 50 μl of the diluted kinase to all wells. (Purified kinase is diluted with Kinase Dilution Buffer. Final concentration should be 10 ng/well.) • 5. Add 25 μL of the test compound (in 4% DMSO) or DMSO alone (4% in dH2O) for controls to plate. • 6. Incubate the kinase/compound mixture for 15 minutes. • 7. Add 25 μL of 40 mM MnCl2 to the negative control wells. • 8. Add 25 μL ATP/MnCl2 mixture to the all other wells (except the negative controls). Incubate for 5 min. • 9. Add 25 μL 500 mM EDTA to stop reaction. • 10. Wash plate 3× with TBST. • 11. Add 100 μL rabbit polyclonal anti-Ptyr diluted 1:10,000 in Antibody Dilution Buffer to each well. Incubate, with shaking, at room temperature for one hour. • 12. Wash plate 3× with TBST. • 13. […] Add 100 μL per well and incubate at room temperature, with shaking, for one hour. • 14. Wash plate 1× with PBS. • 15. Add 100 μl of ABTS/H2O2 solution to each well. • 16. If necessary, stop the development reaction with the addition of […] of 0.2M HCl per well. • 17.
For orientation: An ELISA detects its analyte on a solid surface through an enzyme-linked reagent.
`O=C(Cc1ccc(O)cc1)N/N=C1\C(=O)Nc2ccc(C(=O)N3CCC(NC4CC4)CC3)c(Cl)c21` [Example I-28, (4-Hydroxy-phenyl)-acetic acid [(3Z)-4-chloro-5-(4-cyclopropylamino-piperidine-1-carbonyl)-2-oxo-1,2-dihydro-indol-3-ylidene]-hydrazide]: the midpoint of inhibition, the IC50, lay at 24 nM. This counts as double-digit nanomolar.

`CC(C(=O)N/N=C1\C(=O)Nc2ccc(C(=O)O)c(Cl)c21)c1ccc(F)cc1` (stereo not shown) [Example I-29, (3Z)-4-Chloro-3-{[2-(4-fluoro-phenyl)-propionyl]-hydrazono}-2-oxo-2,3-dihydro-1H-indole-5-carboxylic acid] showed an IC50 of 230 nM. Compared with the last molecule, the IC50 is about 9.6-fold higher.

Regarding `CC(C(=O)N/N=C1\C(=O)Nc2ccc(C(=O)N3CCC(NC4CC4)CC3)c(Cl)c21)c1ccc(F)cc1` (stereo not shown) [Example I-30, 2-(4-Fluoro-phenyl)-propionic acid [(3Z)-4-chloro-5-(4-cyclopropylamino-piperidine-1-carbonyl)-2-oxo-1,2-dihydro-indol-3-ylidene]-hydrazide], the IC50 turned out to be 130 nM.

`O=C(Cc1ccc2c(c1)OCO2)N/N=C1\C(=O)Nc2ccc(S(=O)(=O)NCCN3CCOCC3)cc21` [Example I-31, (3Z)-3-[(2-Benzo[1,3]dioxol-5-yl-acetyl)-hydrazono]-2-oxo-2,3-dihydro-1H-indole-5-sulfonic acid (2-morpholin-4-yl-ethyl)-amide] had a concentration for half-maximal inhibition (IC50) of 320 nM.

In turn, `O=C1Nc2ccccc2/C1=N/NC(=O)C(F)(F)c1ccc(F)cc1` [Example I-32, Difluoro-(4-fluoro-phenyl)-acetic acid [(3Z)-2-oxo-1,2-dihydro-indol-3-ylidene]-hydrazide] displayed a half-maximal inhibitory concentration (IC50) greater than 20000 nM.

In turn, `CC(C(=O)N/N=C1\C(=O)Nc2ccc(C(=O)N3CCC(NC4CC4)CC3)c(Cl)c21)c1ccc(O)cc1` (stereo not shown) [Example I-33, 2-(4-Hydroxy-phenyl)-propionic acid [(3Z)-4-chloro-5-(4-cyclopropylamino-piperidine-1-carbonyl)-2-oxo-1,2-dihydro-indol-3-ylidene]-hydrazide] had a 50% inhibitory concentration (IC50) of 86 nM.

As to `Cn1cc(CC(=O)N/N=C2\C(=O)Nc3ccc(C(=O)O)c(Cl)c32)ccc1=O` [Example I-34, (3Z)-4-Chloro-3-{[2-(1-methyl-6-oxo-1,6-dihydro-pyridin-3-yl)-acetyl]-hydrazono}-2-oxo-2,3-dihydro-1H-indole-5-carboxylic acid], the IC50 turned out to be 2080 nM.

In the case of `Cn1cc(CC(=O)N/N=C2\C(=O)Nc3ccc(C(=O)N4CCC(NC5CC5)CC4)c(Cl)c32)ccc1=O` [Example I-35, (1-Methyl-6-oxo-1,6-dihydro-pyridin-3-yl)-acetic acid [(3Z)-4-chloro-5-(4-cyclopropylamino-piperidine-1-carbonyl)-2-oxo-1,2-dihydro-indol-3-ylidene]-hydrazide], it took 1230 nM to reach half-maximal inhibition (IC50).

On to `Cn1cc(CC(=O)N/N=C2\C(=O)Nc3ccc(C(=O)N4CCC[C@@H]4CN4CCCC4)c(Cl)c32)ccc1=O` [Example I-36, (1-Methyl-6-oxo-1,6-dihydro-pyridin-3-yl)-acetic acid [(3Z)-4-chloro-2-oxo-5-[(2R)-2-pyrrolidin-1-ylmethyl-pyrrolidine-1-carbonyl]-1,2-dihydro-indol-3-ylidene]-hydrazide], for which the 50% inhibitory concentration (IC50) turned out to be 4150 nM.

`O=C(Cc1ccc(O)c(Cl)c1)N/N=C1\C(=O)Nc2ccc(C(=O)O)c(Cl)c21` [Example I-37, (3Z)-4-Chloro-3-{[2-(3-chloro-4-hydroxy-phenyl)-acetyl]-hydrazono}-2-oxo-2,3-dihydro-1H-indole-5-carboxylic acid]: 29 nM corresponded to half-maximal inhibition (IC50).

Molecule `O=C(Cc1ccc(O)c(Cl)c1)N/N=C1\C(=O)Nc2ccc(C(=O)N3CCC(NC4CC4)CC3)c(Cl)c21` [Example I-38, (3-Chloro-4-hydroxy-phenyl)-acetic acid [(3Z)-4-chloro-5-(4-cyclopropylamino-piperidine-1-carbonyl)-2-oxo-1,2-dihydro-indol-3-ylidene]-hydrazide] yielded an IC50 of 26 nM.

For `CC(C(=O)N/N=C1\C(=O)Nc2ccc(C(=O)NCCN3CCOCC3)c(Cl)c21)c1ccc(F)cc1` (stereo not shown) [Example I-39, (3Z)-4-Chloro-3-{[2-(4-fluoro-phenyl)-propionyl]-hydrazono}-2-oxo-2,3-dihydro-1H-indole-5-carboxylic acid (2-morpholin-4-yl-ethyl)-amide], the half-maximal inhibitory concentration (IC50) was 110 nM.

In turn, `CC(C(=O)N/N=C1\C(=O)Nc2ccc(C(=O)N3CCC[C@@H]3CN3CCCC3)c(Cl)c21)c1ccc(F)cc1` (stereo partly drawn) [Example I-40, 2-(4-Fluoro-phenyl)-propionic acid [(3Z)-4-chloro-2-oxo-5-[(2R)-(2-pyrrolidin-1-ylmethyl-pyrrolidine-1-carbonyl)]-1,2-dihydro-indol-3-ylidene]-hydrazide] registered an IC50 of 430 nM.

Molecule `O=C(Cc1ccc(O)nc1)N/N=C1\C(=O)Nc2ccc(C(=O)N3CCC(NC4CC4)CC3)c(Cl)c21` [Example I-44, (6-Hydroxy-pyridin-3-yl)-acetic acid [(3Z)-4-chloro-5-(4-cyclopropylamino-piperidine-1-carbonyl)-2-oxo-1,2-dihydro-indol-3-ylidene]-hydrazide] showed an IC50 of 570 nM.

Molecule `O=C(Cc1ccc(O)nc1)N/N=C1\C(=O)Nc2ccc(C(=O)N3CCC[C@@H]3CNC3CC3)c(Cl)c21` [Example I-45, (6-Hydroxy-pyridin-3-yl)-acetic acid [(3Z)-4-chloro-5-[(2R)-2-cyclopropylaminomethyl-pyrrolidine-1-carbonyl]-2-oxo-1,2-dihydro-indol-3-ylidene]-hydrazide] had an IC50 of 1300 nM.

`Cn1cc(CC(=O)N/N=C2\C(=O)Nc3cc(Cl)c(C(=O)NCCN4CCOCC4)cc32)ccc1=O` [Example I-46, (3Z)-6-Chloro-3-{[2-(1-methyl-6-oxo-1,6-dihydro-pyridin-3-yl)-acetyl]-hydrazono}-2-oxo-2,3-dihydro-1H-indole-5-carboxylic acid (2-morpholin-4-yl-ethyl)-amide] displayed a half-maximal inhibitory concentration (IC50) of 5840 nM.

In turn, `O=C(Cc1ccc(O)cc1)N/N=C1\C(=O)Nc2c(C(=O)O)cccc21` [Example I-47, (3Z)-3-{[2-(4-Hydroxy-phenyl)-acetyl]-hydrazono}-2-oxo-2,3-dihydro-1H-indole-7-carboxylic acid] yielded a half-maximal inhibitory concentration (IC50) of 14600 nM.

In turn, `CC(C(=O)N/N=C1\C(=O)Nc2ccc(C(=O)N3CC[C@H](N)C3)c(Cl)c21)c1ccc(F)cc1` (stereo partly drawn) [Example I-48, 2-(4-Fluoro-phenyl)-propionic acid [(3Z)-5-[(3S)-3-amino-pyrrolidine-1-carbonyl]-4-chloro-2-oxo-1,2-dihydro-indol-3-ylidene]-hydrazide trifluoroacetate] yielded an IC50 of 460 nM. Compared with the last molecule, the IC50 is about 32-fold lower.

On to `O=C(Cc1ccc(O)cc1)N/N=C1\C(=O)Nc2ncccc21` [Example I-49, (4-Hydroxy-phenyl)-acetic acid [(3Z)-2-oxo-1,2-dihydro-pyrrolo[2,3-b]pyridin-3-ylidene)-hydrazide], for which the IC50 was determined as 230 nM.

`CN(C)CC#Cc1ccc2c(c1)/C(=N/NC(=O)Cc1ccc(F)cc1)C(=O)N2` [Example I-50, (4-Fluoro-phenyl)-acetic acid [(3Z)-5-(3-dimethylamino-prop-1-ynyl)-2-oxo-1,2-dihydro-indol-3-ylidene]-hydrazide] returned an IC50 of 11900 nM. This IC50 is about 52-fold higher than that of the molecule before.

Consider `CC(C(=O)N/N=C1\C(=O)Nc2ccc(C#CCN(C)C)cc21)c1ccc(F)cc1` (stereo not shown) [Example I-51, 2-(4-Fluoro-phenyl)-propionic acid [(3Z)-5-(3-dimethylamino-prop-1-ynyl)-2-oxo-1,2-dihydro-indol-3-ylidene]-hydrazide], for which half-maximal inhibition (IC50) was put at 5100 nM.

In turn, `CC(C(=O)N/N=C1\C(=O)Nc2c(Cl)ccc(Cl)c21)c1ccc2c(c1)OCO2` (stereo not shown) [Example I-52, 2-Benzo[1,3]dioxol-5-yl-propionic acid [(3Z)-4,7-dichloro-2-oxo-1,2-dihydro-indol-3-ylidene]-hydrazide] returned an IC50 of 260 nM.
